{
  "source": "patent US10131657B2",
  "about": "“Bromodomain inhibitors” (AbbVie Inc., priority 2013, dated 2018)",
  "data": [
    {"tested_on": "breast cancer cell line MX-1", "test": "MX-1 cell line proliferation assay, Method A", "assay_type": "cell-based", "settings": "Homo sapiens, MX1; MX-1 cells, 96-well, 72 hours, Cell Titer Glo; read-out: Cellular proliferation: EC50 Method A", "procedure,_shortened": "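MX-1 breast cancer cells (5000/well) were attached overnight in RPMI 1640 with 10% FBS, then exposed for 3 days to compound at 0.0001–3 μM final. Cell Titer Glo luminescence was normalized to DMSO controls, and EC50s were obtained by sigmoidal fitting.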", "units": {"EC50": "nM"}, "values": [
      {"smiles": "COc1ccc(S(=O)(=O)N2CCC(Nc3ccc(S(C)(=O)=O)cc3-c3cn(C)c(=O)c4[nH]ccc34)CC2)cc1", "note": "[Example 104, 4-[2-({1-[(4-methoxyphenyl)sulfonyl]piperidin-4-yl}amino)-5-(methylsulfonyl)phenyl]-6-methyl-1,6-dihydro-7H-pyrrolo[2,3-c]pyridin-7-one]", "EC50": 176},
      {"smiles": "Cn1cc(-c2cc(S(C)(=O)=O)ccc2N[C@H]2CC[C@H](NCc3cccs3)CC2)c2cc[nH]c2c1=O", "note": "[Example 107, 6-methyl-4-[5-(methylsulfonyl)-2-({trans-4-[(thiophen-2-ylmethyl)amino]cyclohexyl}amino)phenyl]-1,6-dihydro-7H-pyrrolo[2,3-c]pyridin-7-one]", "EC50": 23.5},
      {"smiles": "CC(=O)Nc1ccc(CN[C@H]2CC[C@H](Nc3ccc(S(C)(=O)=O)cc3-c3cn(C)c(=O)c4[nH]ccc34)CC2)cc1", "note": "[Example 108, N-(4-{[(trans-4-{[2-(6-methyl-7-oxo-6,7-dihydro-1H-pyrrolo[2,3-c]pyridin-4-yl)-4-(methylsulfonyl)phenyl]amino}cyclohexyl)amino]methyl}phenyl)acetamide]", "EC50": 299},
      {"smiles": "Cn1cc(-c2cc(S(C)(=O)=O)ccc2N[C@H]2CC[C@H](NCc3ccc(F)cc3F)CC2)c2cc[nH]c2c1=O", "note": "[Example 109, 4-[2-({trans-4-[(2,4-difluorobenzyl)amino]cyclohexyl}amino)-5-(methylsulfonyl)phenyl]-6-methyl-1,6-dihydro-7H-pyrrolo[2,3-c]pyridin-7-one]", "EC50": 18.1},
      {"smiles": "Cn1cc(-c2cc(S(C)(=O)=O)ccc2N[C@H]2CC[C@H](NCc3ccc4ccccc4c3)CC2)c2cc[nH]c2c1=O", "note": "[Example 110, 6-methyl-4-[5-(methylsulfonyl)-2-({trans-4-[(naphthalen-2-ylmethyl)amino]cyclohexyl}amino)phenyl]-1,6-dihydro-7H-pyrrolo[2,3-c]pyridin-7-one]", "EC50": 10.4},
      {"smiles": "COCCN[C@H]1CC[C@H](Nc2ccc(S(C)(=O)=O)cc2-c2cn(C)c(=O)c3[nH]ccc23)CC1", "note": "[Example 111, 4-[2-({trans-4-[(2-methoxyethyl)amino]cyclohexyl}amino)-5-(methylsulfonyl)phenyl]-6-methyl-1,6-dihydro-7H-pyrrolo[2,3-c]pyridin-7-one]", "EC50": 156},
      {"smiles": "CSCCCN[C@H]1CC[C@H](Nc2ccc(S(C)(=O)=O)cc2-c2cn(C)c(=O)c3[nH]ccc23)CC1", "note": "[Example 112, 6-methyl-4-{2-[(trans-4-{[3-(methylsulfanyl)propyl]amino}cyclohexyl)amino]-5-(methylsulfonyl)phenyl}-1,6-dihydro-7H-pyrrolo[2,3-c]pyridin-7-one]", "EC50": 142},
      {"smiles": "Cn1cc(-c2cc(S(C)(=O)=O)ccc2N[C@H]2CC[C@H](NCc3ccc(Cl)cc3)CC2)c2cc[nH]c2c1=O", "note": "[Example 113, 4-[2-({trans-4-[(4-chlorobenzyl)amino]cyclohexyl}amino)-5-(methylsulfonyl)phenyl]-6-methyl-1,6-dihydro-7H-pyrrolo[2,3-c]pyridin-7-one]", "EC50": 19.5},
      {"smiles": "Cn1cc(-c2cc(S(C)(=O)=O)ccc2Oc2ccc(F)cc2F)c2cc(CN3CCN(c4nccs4)CC3)[nH]c2c1=O", "note": "[Example 114, 4-[2-(2,4-difluorophenoxy)-5-(methylsulfonyl)phenyl]-6-methyl-2-{[4-(1,3-thiazol-2-yl)piperazin-1-yl]methyl}-1,6-dihydro-7H-pyrrolo[2,3-c]pyridin-7-one]", "EC50": 762},
      {"smiles": "Cn1cc(-c2cc(S(C)(=O)=O)ccc2Oc2ccc(F)cc2F)c2cc(CN3CCN(C4CC4)CC3)[nH]c2c1=O", "note": "[Example 115, 2-[(4-cyclopropylpiperazin-1-yl)methyl]-4-[2-(2,4-difluorophenoxy)-5-(methylsulfonyl)phenyl]-6-methyl-1,6-dihydro-7H-pyrrolo[2,3-c]pyridin-7-one]", "EC50": 411},
      {"smiles": "Cn1cc(-c2cc(S(C)(=O)=O)ccc2Oc2ccc(F)cc2F)c2cc(CN3CCN(C4CCOCC4)CC3)[nH]c2c1=O", "note": "[Example 116, 4-[2-(2,4-difluorophenoxy)-5-(methylsulfonyl)phenyl]-6-methyl-2-{[4-(tetrahydro-2H-pyran-4-yl)piperazin-1-yl]methyl}-1,6-dihydro-7H-pyrrolo[2,3-c]pyridin-7-one]", "EC50": 183},
      {"smiles": "CCS(=O)(=O)c1ccc(Oc2ccc(F)cc2F)c(-c2cn(C)c(=O)c3[nH]c(-c4ccnn4-c4ccccc4)cc23)c1", "note": "[Example 117, 4-[2-(2,4-difluorophenoxy)-5-(ethylsulfonyl)phenyl]-6-methyl-2-(1-phenyl-1H-pyrazol-5-yl)-1,6-dihydro-7H-pyrrolo[2,3-c]pyridin-7-one]", "EC50": 249},
      {"smiles": "CCNC(=O)c1cc2c(-c3cc(S(=O)(=O)CC)ccc3Oc3c(C)cccc3NCC3CC3)cn(C)c(=O)c2[nH]1", "note": "[Example 119, 4-[2-{2-[(cyclopropylmethyl)amino]-6-methylphenoxy}-5-(ethylsulfonyl)phenyl]-N-ethyl-6-methyl-7-oxo-6,7-dihydro-1H-pyrrolo[2,3-c]pyridine-2-carboxamide]", "EC50": 1510},
      {"smiles": "CN1CCC(N2CCN(Cc3cc4c(-c5cc(S(C)(=O)=O)ccc5Oc5ccc(F)cc5F)cn(C)c(=O)c4[nH]3)CC2)CC1", "note": "[Example 125, 4-[2-(2,4-difluorophenoxy)-5-(methylsulfonyl)phenyl]-6-methyl-2-{[4-(1-methylpiperidin-4-yl)piperazin-1-yl]methyl}-1,6-dihydro-7H-pyrrolo[2,3-c]pyridin-7-one]", "EC50": 606},
      {"smiles": "Cn1cc(-c2cc(S(C)(=O)=O)ccc2Oc2ccc(F)cc2F)c2cc(CN3CCOCC3c3ccco3)[nH]c2c1=O", "note": "(centres unmarked) [Example 127, 4-[2-(2,4-difluorophenoxy)-5-(methylsulfonyl)phenyl]-2-{[3-(furan-2-yl)morpholin-4-yl]methyl}-6-methyl-1,6-dihydro-7H-pyrrolo[2,3-c]pyridin-7-one]", "EC50": 128},
      {"smiles": "Cc1cc(C)n(C2CN(Cc3cc4c(-c5cc(S(C)(=O)=O)ccc5Oc5ccc(F)cc5F)cn(C)c(=O)c4[nH]3)C2)n1", "note": "[Example 129, 4-[2-(2,4-difluorophenoxy)-5-(methylsulfonyl)phenyl]-2-{[3-(3,5-dimethyl-1H-pyrazol-1-yl)azetidin-1-yl]methyl}-6-methyl-1,6-dihydro-7H-pyrrolo[2,3-c]pyridin-7-one]", "EC50": 249},
      {"smiles": "Cn1cc(-c2cc(S(C)(=O)=O)ccc2Oc2ccc(F)cc2F)c2cc(CN3CCC(N4CCOCC4)CC3)[nH]c2c1=O", "note": "[Example 130, 4-[2-(2,4-difluorophenoxy)-5-(methylsulfonyl)phenyl]-6-methyl-2-{[4-(morpholin-4-yl)piperidin-1-yl]methyl}-1,6-dihydro-7H-pyrrolo[2,3-c]pyridin-7-one]", "EC50": 337},
      {"smiles": "CCS(=O)(=O)Nc1ccc(Oc2ccc(F)cc2F)c(-c2cn(C)c(=O)c3[nH]c(C#CCOC)cc23)c1", "note": "[Example 163, N-{4-(2,4-difluorophenoxy)-3-[2-(3-methoxyprop-1-yn-1-yl)-6-methyl-7-oxo-6,7-dihydro-1H-pyrrolo[2,3-c]pyridin-4-yl]phenyl}ethanesulfonamide]", "EC50": 47.7}
    ]},
    {"tested_on": "breast cancer cell line MX-1", "test": "MX-1 cell line proliferation assay, Method B", "assay_type": "cell-based", "settings": "Homo sapiens, MX1; MX-1 cells, 384-well, 72 hours, Cell Titer Glo; read-out: Cellular proliferation: EC50 Method B", "method": "The impact of compounds of the Examples on cancer cell proliferation was determined using the breast cancer cell line MX-1 (ATCC) in a 3-day proliferation assay and the data are reported in Table 1.\nMX-1 cells were maintained in RPMI 1640 medium (Sigma) supplemented with 10% FBS at 37° C. and an atmosphere of 5% CO2. For compound testing, MX-1 cells were plated in 384-well white with clear, flat bottom plates at a density of 750 cells/well in 25 μL of culture media and incubated at 370 overnight to allow cell adhesion and spreading. Ten point compound dilution series were prepared in DMSO via a 3-fold serial dilution from either 10 μM or 1 μM stock and added directly to the appropriate wells of the MX-1 cell plate by an ECHO liquid handler (Labcyte). The final compound concentrations in the wells were 10, 3.25, 1, 0.25, 0.124, 0.040, 0.0124, 0.0031, 0.0015 and 0.0005 μM or 1, 0.33, 0.1, 0.025, 0.0124, 0.004, 0.0012, 0.0003, 0.00015, 0.00005 μM, depending on the concentration of the compound stock solution.\nLuminescence readings from the Cell Titer Glo assay were normalized to the DMSO treated cells and analyzed using Accelrys Assay Explorer 3.3 software with sigmoidal curve fitting to obtain EC50s. The minimum significant ratio (MSR) was determined to evaluate assay reproducibility (Eastwood et al., (2006) J Biomol Screen, 11: 253-261). The overall MSR was determined to be 3.3 and a moving MSR (last six run MSR overtime) has averaged 2.1.", "units": {"EC50": "nM"}, "values": [
      {"smiles": "Cc1noc(C2CCCN2Cc2cc3c(-c4cc(S(C)(=O)=O)ccc4Oc4ccc(F)cc4F)cn(C)c(=O)c3[nH]2)n1", "note": "(centres unmarked) [Example 131, 4-[2-(2,4-difluorophenoxy)-5-(methylsulfonyl)phenyl]-6-methyl-2-{[2-(3-methyl-1,2,4-oxadiazol-5-yl)pyrrolidin-1-yl]methyl}-1,6-dihydro-7H-pyrrolo[2,3-c]pyridin-7-one]", "EC50": 827},
      {"smiles": "Cn1cc(-c2cc(S(C)(=O)=O)ccc2Oc2ccc(F)cc2F)c2cc(CN3CCN(c4ccccn4)CC3)[nH]c2c1=O", "note": "[Example 132, 4-[2-(2,4-difluorophenoxy)-5-(methylsulfonyl)phenyl]-6-methyl-2-{[4-(pyridin-2-yl)piperazin-1-yl]methyl}-1,6-dihydro-7H-pyrrolo[2,3-c]pyridin-7-one]", "EC50": 653},
      {"smiles": "CCNC(=O)/C=C/c1cc2c(-c3cc(S(=O)(=O)CC)ccc3Oc3c(C)cccc3C)cn(C)c(=O)c2[nH]1", "note": "[Example 134, (2E)-3-{4-[2-(2,6-dimethylphenoxy)-5-(ethylsulfonyl)phenyl]-6-methyl-7-oxo-6,7-dihydro-1H-pyrrolo[2,3-c]pyridin-2-yl}-N-ethylprop-2-enamide]", "EC50": 238},
      {"smiles": "Cc1cccc(C)c1Oc1ccc(S(C)(=O)=O)cc1-c1cn(C)c(=O)c2[nH]c(-c3nc(C4CCCCC4)no3)cc12", "note": "[Example 136, 2-(3-cyclohexyl-1,2,4-oxadiazol-5-yl)-4-[2-(2,6-dimethylphenoxy)-5-(methylsulfonyl)phenyl]-6-methyl-1,6-dihydro-7H-pyrrolo[2,3-c]pyridin-7-one]", "EC50": "> 1000"},
      {"smiles": "Cc1cccc(C)c1Oc1ccc(S(C)(=O)=O)cc1-c1cn(C)c(=O)c2[nH]c(-c3nc(-c4ccccc4)no3)cc12", "note": "[Example 137, 4-[2-(2,6-dimethylphenoxy)-5-(methylsulfonyl)phenyl]-6-methyl-2-(3-phenyl-1,2,4-oxadiazol-5-yl)-1,6-dihydro-7H-pyrrolo[2,3-c]pyridin-7-one]", "EC50": "> 1000"}
    ]}
  ]
}
